≈ marks a conversion by molar mass, not a printed value. Read-outs that look alike come from different tables or passages of the source.
Tests used:
Enterococcus faecalis I = assay: Antimicrobial activity assay (broth microdilution MIC); type: cell-based; details: read-out: MIC, E. faecalis I
Protocol: (§1) Whole-cell antimicrobial activity was determined by broth microdilution using the Clinical and Laboratory Standards Institute (CLSI, formerly NCCLS) recommended methodology (NCCLS Document M7-A7, “Methods for Dilution Antimicrobial Susceptibility Tests for Bacteria that Grow Aerobically; Approved Standard—Seventh Edition”, 2006). Compounds were tested in serial two-fold dilutions ranging from 64 to 0.06 μg/mL against a panel of at least 11 strains. This panel consisted of the following laboratory strains: Staphylococcus aureus Oxford, Staphylococcus aureus WCUH29, Enterococcus faecalis I, Enterococcus faecalis 7 or Enterococcus faecalis X7501, Haemophilus influenzae Q1, Haemophilus influenzae NEMC1 or Haemophilus influenzae H128, Moraxella catarrhalis 1502, Streptococcus pneumoniae 1629, Streptococcus pneumoniae N1387, Streptococcus pneumoniae Ery2 and Escherichia coli 7623 or Escherichia coli 3. All compounds were also tested against Haemophilus influenzae H128 or Escherichia coli 7623 efflux minus mutants (strains in which the AcrA efflux pump had been deleted) to ascertain the extent in which the molecules were effluxed out of the bacteria. In addition, the antibacterial activity of some compounds against Streptococcus pyogenes 1307006P and Streptococcus pyogenes 1308007P was also analyzed. The minimum inhibitory concentration (MIC) was determined as the lowest concentration of compound that inhibited visible growth. A mirror reader was used to assist in determining the MIC endpoint.

[1] = system: Enterococcus faecalis X7501; assay: as above; type: cell-based; details: read-out: MIC, E. faecalis X7501
Protocol: as §1

Escherichia coli 3 = assay: as above; type: cell-based; details: read-out: MIC, E. coli 3
Protocol: as §1

[2] = system: Haemophilus influenzae H128; assay: as above; type: cell-based; details: read-out: MIC, H. influenzae H128
Protocol: as §1

[3] = system: Haemophilus influenzae Q1; assay: as above; type: cell-based
Protocol: as §1

[4] = system: Moraxella catarrhalis 1502; assay: as above; type: cell-based
Protocol: as §1

[5] = system: Staphylococcus aureus Oxford; assay: as above; type: cell-based; details: read-out: MIC, S. aureus Oxford
Protocol: as §1

[6] = system: Staphylococcus aureus WCUH29; assay: as above; type: cell-based; details: read-out: MIC, S. aureus WCUH29
Protocol: as §1

[7] = system: Streptococcus pneumoniae 1629; assay: as above; type: cell-based; details: read-out: MIC, S. pneumoniae 1629
Protocol: as §1

[8] = system: Streptococcus pneumoniae Ery2; assay: as above; type: cell-based; details: ERY2, read-out: MIC, S. pneumoniae ERY2
Protocol: as §1

[9] = system: Streptococcus pneumoniae N1387; assay: as above; type: cell-based; details: read-out: MIC, S. pneumoniae N1387
Protocol: as §1

[10] = system: Streptococcus pyogenes 1308007P; assay: as above; type: cell-based; details: read-out: MIC, S. pyogenes 1308007P
Protocol: as §1

[11] = molecular target: T1, Haemophilus influenzae PDF (Haemophilus influenzae, UniProt P44786); assay: PDF IC50 Assay 2 (FDH/NAD+/Diaphorase-coupled fluorescence); type: biochemical
T1 sequence (P44786 whole entry): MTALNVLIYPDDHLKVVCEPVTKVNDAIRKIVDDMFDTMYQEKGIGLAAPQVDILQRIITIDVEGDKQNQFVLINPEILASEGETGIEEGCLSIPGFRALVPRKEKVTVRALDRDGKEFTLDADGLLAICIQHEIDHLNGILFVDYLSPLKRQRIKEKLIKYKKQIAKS
Protocol: (§2) Enzymatic activity of PDF was measured using a formate dehydrogenase (FDH)/NAD+/Diaphorase-coupled Fluorescence detection assay. Once formate is released from methionine by PDF, it is oxidized by FDH, thereby reducing one molecule of NAD to NADH. Diaphorase then catalyzes the conversion of Resazurin to Resarufin using the NADH produced by the FDH reaction. The fluorescence intensity of Resarufin is monitored by excitation at 525 nm and emission at 598 nm. The reaction is assembled by first adding the NAD, f-MAS and Resazurin to each well of a 384 well plate containing 50 nl of test compounds. Reactions were initiated by adding PDF in reaction buffer containing FDH and Diaphorase. The final reaction composition for the Staphylococcus aureus PDF (SaPDF) assay was 50 mM potassium phosphate, 0.025% CHAPS pH 7.6, 0.25 units/mL FDH, 0.156 μm! Diaphorase; 0.025 mg/ml BSA; 1 mM NAD, 0.5% DMSO, 1 mM formyl-Met-Ala-Ser; 5 uM Resazurin, and 1 nM SaPDF, in 10 μL total volume. Serial dilutions of inhibitors were performed in DMSO. Reagents and assay format were identical for the Haemophilus influenzae PDF; in the Streptococcus pneumoniae PDF assays, assay composition was the same, except that […] enzyme was used. The endpoint of each reaction was chosen to ensure that all data were collected within the linear range of catalysis. IC50s were determined by fitting to the equation: % Inhibition=100/1+(IC50/[l])^s, where s is a slope factor, l is the inhibitor concentration and the IC50 is the concentration of compound that causes 50% inhibition.

[12] = molecular target: T2, Staphylococcus aureus PDF (SaPDF) (Staphylococcus aureus, UniProt P68826); assay: as above; type: biochemical; details: Assay 2 conditions; read-out: IC50, S. aureus PDF activity
T2 sequence (P68826 1-183): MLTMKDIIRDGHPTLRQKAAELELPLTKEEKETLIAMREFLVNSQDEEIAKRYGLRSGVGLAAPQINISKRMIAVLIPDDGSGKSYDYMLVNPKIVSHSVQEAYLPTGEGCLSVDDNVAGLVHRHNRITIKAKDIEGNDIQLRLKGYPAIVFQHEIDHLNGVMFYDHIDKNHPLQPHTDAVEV
Protocol: as §2

[13] = molecular target: T3, Streptococcus pneumoniae PDF (Streptococcus pneumoniae serotype 4, UniProt Q9F2F0); assay: as above; type: biochemical; details: Assay 2 conditions; read-out: IC50, S. pneumoniae PDF activity
T3 sequence (Q9F2F0 1-203): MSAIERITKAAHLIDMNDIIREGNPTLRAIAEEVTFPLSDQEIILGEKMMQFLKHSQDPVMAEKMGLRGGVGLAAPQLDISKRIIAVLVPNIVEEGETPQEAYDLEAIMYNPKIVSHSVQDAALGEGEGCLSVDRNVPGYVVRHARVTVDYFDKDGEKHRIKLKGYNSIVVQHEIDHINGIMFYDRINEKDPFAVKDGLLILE
Protocol: as §2

[14] = molecular target: T1, Haemophilus influenzae PDF; assay: PDF IC50 Assay 1 (FDH-coupled, absorbance 340 nm); type: biochemical
Protocol: (§3) Enzymatic activity of PDF was measured using a formate dehydrogenase (FDH)-coupled assay [Lazennec and Meinnel (1997) Anal. Biochem. 244, 180-182]. Once formate is released from methionine by PDF, it is oxidized by FDH thereby reducing one molecule of NAD to NADH and resulting in an increase in absorbance at 340 nm. Reactions were initiated by adding PDF to microtiter plates containing all other reaction components and were continuously monitored for 20 min at 25° C. The final reaction composition for the Staphylococcus aureus PDF (SaPDF) assay was 50 mM potassium phosphate, pH 7.6, 5 units/mL FDH, 7 mM NAD, 1% DMSO, 0.01% CHAPS, 1 nM SaPDF, and 3 mM formyl-Met-Ala-Ser in 40 μL total volume. Serial dilutions of inhibitors were performed in DMSO. Reagents and assay format were identical for Haemophilus influenzae PDF except that formyl-Met-Ala-Ser was 6 mM final. In the Streptococcus pneumoniae PDF assay, reaction conditions were similar but contained […] enzyme, 4 mM NAD and 4 mM formyl-Met-Ala-Ser. The varying formyl-Met-Ala-Ser concentrations reflect KM values for substrate using the different PDF isozymes. IC50s were determined by fitting to the equation: % Inhibition=100/1+(IC50/[l])^s, where s is a slope factor, l is the inhibitor concentration and the IC50 is the concentration of compound that causes 50% inhibition.

[15] = molecular target: T2, Staphylococcus aureus PDF (SaPDF); assay: PDF IC50 Assay 1 (FDH-coupled, absorbance 340 nm); type: biochemical; details: Assay 1 conditions; read-out: IC50, S. aureus PDF activity
Protocol: as §3

[16] = molecular target: T3, Streptococcus pneumoniae PDF; assay: PDF IC50 Assay 1 (FDH-coupled, absorbance 340 nm); type: biochemical; details: Assay 1 conditions; read-out: IC50, S. pneumoniae PDF activity
Protocol: as §3

[17] = Q1, broth microdilution, read-out: MIC, H. influenzae Q1

| SMILES | MIC (Enterococcus faecalis I) [µg/mL] | MIC [1] [µg/mL] | MIC (Escherichia coli 3) [µg/mL] | MIC [2] [µg/mL] | MIC [3, 17] [µg/mL] | MIC [4] [µg/mL] | MIC [5] [µg/mL] | MIC [6] [µg/mL] | MIC [7] [µg/mL] | MIC [8] [µg/mL] | MIC [9] [µg/mL] | MIC [10] [µg/mL] | IC50 [11] [nM] | IC50 [12] [nM] | IC50 [13] [nM] | MIC ([3]; Q1, read-out: MIC, H. influenzae Q1) [µg/mL] | IC50 [14] [nM] | IC50 [15] [nM] | IC50 [16] [nM] |
| --- | --- | --- | --- | --- | --- | --- | --- | --- | --- | --- | --- | --- | --- | --- | --- | --- | --- | --- | --- |
| O=CN(O)C[C@@H](CC1CCCC1)C(=O)N1NCC[C@H]1C(=O)Nc1cccc[n+]1[O-] [Example 45, (3S)-2-((2R)-3-Cyclopentyl-2-{[formyl(hydroxy)amino]methyl}propanoyl)-N-(1-oxido-2-pyridinyl)-3-pyrazolidinecarboxamide] | 2 (≈ 4.93 µM) | 8 (≈ 19.7 µM) | 32 (≈ 78.9 µM) | 1 (≈ 2.47 µM) | 0.5 (≈ 1.23 µM) | ≤ 0.06 | 1 (≈ 2.47 µM) | 0.25 (≈ 0.617 µM) | 0.5 (≈ 1.23 µM) | 0.25 (≈ 0.617 µM) | 0.25 (≈ 0.617 µM) | 4 (≈ 9.87 µM) |  |  |  |  |  |  |  |
| CN(C)CCOc1nccc(NC(=O)[C@@H]2CCNN2C(=O)[C@H](CC2CCCC2)CN(O)C=O)n1 [Example 81, (3S)-2-((2R)-3-Cyclopentyl-2-{[formyl(hydroxy)amino]methyl}propanoyl)-N-(2-{[2-(dimethylamino)ethyl]oxy}-4-pyrimidinyl)-3-pyrazolidinecarboxamide] |  |  |  |  |  |  |  |  |  |  |  |  | ≤ 1000 | ≤ 1000 | ≤ 1000 |  |  |  |  |
| O=CN(O)C[C@@H](CC1CCCC1)C(=O)N1NCC[C@H]1C(=O)Nc1ncccn1 [Example 84, (3S)-2-((2R)-3-Cyclopentyl-2-{[formyl(hydroxy)amino]methyl}propanoyl)-N-2-pyrimidinyl-3-pyrazolidinecarboxamide] | 8 (≈ 20.5 µM) | 16 (≈ 41 µM) | 16 (≈ 41 µM) | 0.5 (≈ 1.28 µM) |  | ≤ 0.06 | 0.5 (≈ 1.28 µM) | 0.125 (≈ 0.32 µM) | 1 (≈ 2.56 µM) | 1 (≈ 2.56 µM) | 1 (≈ 2.56 µM) | 0.5 (≈ 1.28 µM) | ≤ 1000 | ≤ 1000 | ≤ 1000 | 0.125 (≈ 0.32 µM) |  |  |  |
| CN(C)Cc1nccc(NC(=O)[C@@H]2CCNN2C(=O)[C@H](CC2CCCC2)CN(O)C=O)n1 [Example 91, (3S)-2-((2R)-3-Cyclopentyl-2-{[formyl(hydroxy)amino]methyl}propanoyl)-N-{2-[(dimethylamino)methyl]-4-pyrimidinyl}-3-pyrazolidinecarboxamide] | 16 (≈ 35.8 µM) | 16 (≈ 35.8 µM) | 4 (≈ 8.94 µM) | 0.5 (≈ 1.12 µM) | 0.5 (≈ 1.12 µM) | ≤ 0.06 | 4 (≈ 8.94 µM) | 1 (≈ 2.23 µM) | 2 (≈ 4.47 µM) | 1 (≈ 2.23 µM) | 0.5 (≈ 1.12 µM) | 1 (≈ 2.23 µM) |  |  |  |  |  |  |  |
| O=CN(O)C[C@@H](CC1CCCC1)C(=O)N1N=CC[C@H]1C(=O)Nc1ccncn1 [Example 92, (5S)-1-((2R)-3-Cyclopentyl-2-{[formyl(hydroxy)amino]methyl}propanoyl)-N-4-pyrimidinyl-4,5-dihydro-1H-pyrazole-5-carboxamide] | 1 (≈ 2.57 µM) | 1 (≈ 2.57 µM) | 16 (≈ 41.2 µM) | 0.5 (≈ 1.29 µM) | 0.5 (≈ 1.29 µM) | ≤ 0.06 | 0.25 (≈ 0.644 µM) | 0.125 (≈ 0.322 µM) | 0.5 (≈ 1.29 µM) | 0.25 (≈ 0.644 µM) | 0.125 (≈ 0.322 µM) | 0.5 (≈ 1.29 µM) |  |  |  |  |  |  |  |
| CCCCC[C@H](CN(O)C=O)C(=O)N1NCC[C@H]1C(=O)Nc1ccc(F)cn1 [Example 100, (3S)—N-(5-Fluoro-2-pyridinyl)-2-((2R)-2-{[formyl(hydroxy)amino]methyl}heptanoyl)-3-pyrazolidinecarboxamide] |  |  |  |  |  |  |  |  |  |  |  |  |  |  |  |  | ≤ 1000 | ≤ 1000 | ≤ 1000 |
| CCCCC[C@H](CN(O)C=O)C(=O)N1NCC[C@H]1C(=O)Nc1ccncn1 [Example 101, (3S)-2-((2R)-2-{[Formyl(hydroxy)amino]methyl}heptanoyl)-N-4-pyrimidinyl-3-pyrazolidinecarboxamide] |  |  |  |  |  |  |  |  |  |  |  |  | ≤ 1000 | ≤ 1000 | ≤ 1000 |  |  |  |  |
| O=CN(O)C[C@@H](CC1CCCC1)C(=O)N1NCC[C@H]1C(=O)Nc1ccc(O)cc1 [Example 123, (3S)-2-((2R)-3-Cyclopentyl-2-{[formyl(hydroxy)amino]methyl}propanoyl)-N-(4-hydroxyphenyl)-3-pyrazolidinecarboxamide] |  |  |  |  |  |  |  |  |  |  |  |  | ≤ 1000 | ≤ 1000 | ≤ 1000 |  |  |  |  |

From patent publication US8901119B2, “Peptide deformylase inhibitors” (GlaxoSmithKline Intellectual Property (No. 2) Limited, priority 2011, dated 2014)
